In patent US20240148744A1 (Celgene Corporation, priority 2021, published 2024):
pIC50: −log10 of the molar value.

system: Onchocerca gutturosa adult male worms; assay: Onchocerca gutturosa in vitro screening model: adult worm motility score and MTT/formazan viability; type: cell-based; details: read-out: O. gutt Activity class

Row | Structure (SMILES) | pIC50
1 | O=S(=O)(Nc1cccc2cccnc12)c1ccc(-c2cnco2)nc1 [Compound 172, 6-(oxazol-5-yl)-N-(quinolin-8-yl)pyridine-3-sulfonamide] | 5.30 to 6.30
2 | COc1nccnc1S(=O)(=O)Nc1c(Cl)ccc2cccnc12 [Compound 101, N-(7-chloro-quinolin-8-yl)-3-methoxypyr-azine-2-sulfon-amide] | 5.30 to 6.30
3 | Cn1ccnc1S(=O)(=O)Nc1cc(F)cc2cccnc12 [Compound 134, N-(6-fluoro-quinolin-8-yl)-1-methyl-1H-imidazole-2-sulfonamide] | > 6.70
4 | Cc1cccnc1S(=O)(=O)Nc1cccc2ncc(N3CCC3)cc12 [Compound 20, N-(3-(azet-idin-1-yl)-quinolin-5-yl)-3-meth-ylpyridine-2-sulfonamide] | 6.30 to 6.70
5 | NC(=O)c1cccc(S(=O)(=O)Nc2ccc(N3CCOCC3)c3cccnc23)c1 [Compound 92, 3-(N-(5-morpholino-quin-olin-8-yl)sulfamoyl)-benzamide] | 5.30 to 6.30
6 | Cc1nccnc1S(=O)(=O)Nc1c(Cl)ccc2cccnc12 [Compound 70, N-(7-chloro-quinolin-8-yl)-3-methyl-pyrazine-2-sulfonamide] | 5.30 to 6.30
7 | CC(C)n1nccc1S(=O)(=O)Nc1cccc2c(Cl)ccnc12 [Compound 79, N-(4-chloro-quinolin-8-yl)-1-iso-propyl-1H-pyrazole-5-sulfonamide] | > 6.70
8 | Cc1ccc(S(=O)(=O)Nc2cc(F)c(F)c3cccnc23)cc1 [Compound 136, N-(5,6-difluoroquin-olin-8-yl)-4-methylben-zenesulfon-amide] | 6.30 to 6.70
9 | O=S(=O)(Nc1ccc2cccnc2c1)c1ccccn1 [Compound 262, N-(quinolin-7-yl)pyridine-2-sulfonamide] | 5.30 to 6.30
10 | O=S(=O)(Nc1cccc2cccnc12)c1nccc2ncccc12 [Compound 229, N-(quinolin-8-yl)-1,6-naphthyridine-5-sulfonamide] | > 6.70
11 | Cn1ccc(S(=O)(=O)Nc2cccc3cccnc23)n1 [Compound 255, 1-methyl-N-(quinolin-8-yl)-1H-pyrazole-3-sulfonamide] | 6.30 to 6.70
12 | Cc1ccc(S(=O)(=O)Nc2ccc(N3CCC(O)(c4ccccc4)CC3)c3cccnc23)cc1 [Compound 95, N-(5-(4-hydroxy-4-phenylpiper-idin-1-yl)-quinolin-8-yl)-4-methyl-benzene-sulfonamide] | 5.30 to 6.30
13 | O=S(=O)(Nc1cccc2cccnc12)c1ccc(Cl)cn1 [Compound 259, 5-chloro-N-(quinolin-8-yl)pyridine-2-sulfonamide] | 5.30 to 6.30
14 | O=S(=O)(Nc1ccc(F)c2cccnc12)c1cn[nH]c1 [Compound 63, N-(5-fluoro-quinolin-8-yl)-1H-pyrazole-4-sulfonamide] | 5.30 to 6.30
15 | O=S(=O)(Nc1ccnc2cccnc12)c1cc(C2CC2)ccn1 [Compound 195] | > 6.70
16 | O=S(=O)(Nc1cc(C2CCCCC2)cc2cccnc12)c1ccccn1 [Compound 131, N-(6-cyclo-hexylquinolin-8-yl)pyridine-2-sulfonamide] | 5.30 to 6.30
17 | Cc1cc(NS(=O)(=O)c2ccccn2)c2ncccc2c1 [Compound 132, N-(6-methyl-quinolin-8-yl)pyridine-2-sulfonamide] | 6.30 to 6.70
18 | Cc1ccc(S(=O)(=O)Nc2cccc3cccnc23)cc1 [Compound 284, 4-methyl-N-(quinolin-8-yl)benzene-sulfonamide] | > 6.70
19 | COc1cccnc1S(=O)(=O)Nc1cccc2cccnc12 [Compound 223, 3-methoxy-N-(quinolin-8-yl)pyridine-2-sulfonamide] | > 6.70
20 | O=S(=O)(Nc1cccc2cccnc12)c1ccc(-c2ccccc2)cn1 [Compound 244, 5-phenyl-N-(quinolin-8-yl)pyridine-2-sulfonamide] | 5.30 to 6.30
21 | N#Cc1ccc(S(=O)(=O)Nc2cccc3cccnc23)cc1 [Compound 279, 4-cyano-N-(quinolin-8-yl)benzene-sulfonamide] | 6.30 to 6.70
22 | CC(C)n1ccnc1S(=O)(=O)Nc1cccc2cccnc12 [Compound 241, 1-isopropyl-N-(quinolin-8-yl)-1H-imidazole-2-sulfonamide] | > 6.70
23 | O=S(=O)(Nc1ccnc2cccnc12)c1ccccn1 [Compound 203, N-(1,5-naphthyridin-4-yl)pyridine-2-sulfonamide] | 5.30 to 6.30
24 | Cc1cccnc1S(=O)(=O)Nc1cccc2c(OC(C)C)ccnc12 [Compound 19, N-(4-iso-propoxyquin-olin-8-yl)-3-methylpyr-idine-2-sulfonamide] | 5.30 to 6.30
25 | O=S(=O)(Nc1cccc2cccnc12)c1ccc(F)cc1F [Compound 275, 2,4-difluoro-N-(quinolin-8-yl)benzene-sulfonamide] | 6.30 to 6.70
26 | CN1CCC(S(=O)(=O)Nc2cccc3cccnc23)CC1 [Compound 216, 1-methyl-N-(quinolin-8-yl)piperidine-4-sulfonamide] | 5.30 to 6.30
27 | CCc1ccc(NS(=O)(=O)c2nccn2C)c2ncccc12 [Compound 130, N-(5-ethyl-quinolin-8-yl)-1-methyl-1H-imidazole-2-sulfonamide] | 5.30 to 6.30
28 | O=S(=O)(Nc1ccc(F)c2cccnc12)c1ccco1 [Compound 64, N-(5-fluoro-quinolin-8-yl)furan-2-sulfonamide] | > 6.70

Row | Structure (SMILES) | pIC50
29 | Cc1cccnc1S(=O)(=O)Nc1cccc2c1CN(C)CC2 [Compound 43, 3-methyl-N-(2-methyl-1,2,3,4-tetra-hydroisoquin-olin-8-yl)pyr-idine-2-sulfonamide] | > 6.70
30 | O=S(=O)(Nc1ccc(N2CCOCC2)c2cccnc12)c1ccco1 [Compound 61, N-(5-morph-olinoquin-olin-8-yl)-furan-2-sulfonamide] | 5.30 to 6.30
31 | O=S(=O)(Nc1cccc2cccnc12)c1ncccn1 [Compound 200, N-(quinolin-8-yl)pyrimidine-2-sulfonamide] | > 6.70
32 | O=S(=O)(Nc1cccc2cccnc12)c1cccc(-c2ccccc2)n1 [Compound 161, 6-phenyl-N-(quinolin-8-yl)pyridine-2-sulfonamide] | 5.30 to 6.30
33 | O=S(=O)(Nc1cccc2cccnc12)c1ncccc1C1CC1 [Compound 214] | 6.30 to 6.70
34 | O=S(=O)(Nc1cccc2cccnc12)c1cnc(-c2ccccn2)s1 [Compound 170, 2-(pyridin-2-yl)-N-(quinolin-8-yl)thiazole-5-sulfonamide] | > 6.70
35 | COc1ccc(NS(=O)(=O)c2ccco2)c2ncccc12 [Compound 60, N-(5-meth-oxyquinolin-8-yl)furan-2-sulfonamide] | 5.30 to 6.30
36 | Cc1ccc(S(=O)(=O)Nc2cccc3cc(C)cnc23)cc1 [Compound 96, 4-methyl-N-(3-methyl-quinolin-8-yl)benzene-sulfonamide] | > 6.70
37 | O=S(=O)(Nc1cccc2c1NCCC2)c1ncccc1F [Compound 46, 3-fluoro-N-(1,2,3,4-tetra-hydroquin-olin-8-yl)-pyridine-2-sulfonamide] | 5.30 to 6.30
38 | O=S(=O)(Nc1cc(O)cc2cccnc12)c1ccccn1 [Compound 94, N-(6-hydroxy-quinolin-8-yl)pyridine-2-sulfonamide] | 5.30 to 6.30
39 | Cc1ccc(S(=O)(=O)Nc2cccc3cccnc23)cc1C [Compound 273, 3,4-dimethyl-N-(quinolin-8-yl)benzenesulfon-amide] | > 6.70
40 | O=S(=O)(Nc1cccc2cccnc12)c1ccco1 [Compound 281, N-(quinolin-8-yl)furan-2-sulfonamide] | 5.30 to 6.30
41 | COc1cnc(S(=O)(=O)Nc2c(Cl)ccc3cccnc23)cn1 [Compound 78, N-(7-chloro-quinolin-8-yl)-5-meth-oxypyrazine-2-sulfonamide] | 5.30 to 6.30
42 | Cc1cccnc1S(=O)(=O)Nc1cccc2c1N(C)CC2 [Compound 44, 3-methyl-N-(1-methyl-indolin-7-yl)-pyridine-2-sulfonamide] | 5.30 to 6.30
43 | O=S(=O)(Nc1cccc2cccnc12)c1nnc2ccccn12 [Compound 201, N-(quinolin-8-yl)-[1,2,4]triazolo [4,3-a]pyridine-3-sulfonamide] | 5.30 to 6.30
44 | O=S(=O)(Nc1cccc2cccnc12)c1ccc(O)cn1 [Compound 218, 5-hydroxy-N-(quinolin-8-yl)pyridine-2-sulfonamide] | 5.30 to 6.30
45 | O=S(=O)(Nc1cc(-c2ccccc2)cc2cccnc12)c1ccccn1 [Compound 97, N-(6-phenyl-quinolin-8-yl)pyridine-2-sulfonamide] | 5.30 to 6.30
46 | O=S(=O)(Nc1cccc2cccnc12)c1ccc(Cl)cc1Cl [Compound 278, 2,4-dichloro-N-(quinolin-8-yl)benzene-sulfonamide] | 6.30 to 6.70
47 | CCn1c(S(=O)(=O)Nc2cccc3cccnc23)nc(C)c1C [Compound 226, 1-ethyl-4,5-dimethyl-N-(quinolin-8-yl)-1H-imidazole-2-sulfonamide] | > 6.70
48 | O=S(=O)(Nc1cc(F)cc2cccnc12)c1ccccn1 [Compound 135, N-(6-fluoro-quinolin-8-yl)-pyridine-2-sulfonamide] | 5.30 to 6.30
49 | Cc1ccc(NS(=O)(=O)c2ccccn2)c2ncccc12 [Compound 137, N-(5-methyl-quinolin-8-yl)pyridine-2-sulfonamide] | > 6.70
50 | CC(C)n1nccc1S(=O)(=O)Nc1cccc2c1CN(C1CC1)C2 [Compound 40, N-(2-cyclo-propyliso-indolin-4-yl)-1-isopropyl-1H-pyrazole-5-sulfonamide] | 5.30 to 6.30
51 | Cc1ccc(S(=O)(=O)Nc2cc(C(F)(F)F)cc3cccnc23)cc1 [Compound 138, 4-methyl-N-(6-(trifluoro-methyl)quin-olin-8-yl)-benzene-sulfonamide] | 6.30 to 6.70
52 | N#Cc1ccccc1S(=O)(=O)Nc1cccc2cccnc12 [Compound 249, 2-cyano-N-(quinolin-8-yl)benzene-sulfonamide] | 6.30 to 6.70
53 | Cc1nccnc1S(=O)(=O)Nc1cccc2cccnc12 [Compound 210, 3-methyl-N-(quinolin-8-yl)pyrazine-2-sulfonamide] | > 6.70
54 | Cc1cc(C)cc(S(=O)(=O)Nc2cccc3cccnc23)c1 [Compound 254, 3,5-dimethyl-N-(quinolin-8-yl)benzene-sulfonamide] | > 6.70
55 | Cc1cc(NS(=O)(=O)c2nccn2C)c2ncccc2c1 [Compound 129, 1-methyl-N-(6-methyl-quinolin-8-yl)-1H-imidazole-2-sulfonamide] | > 6.70
